Consider seven compounds from patent US20240197897A1, “HETEROTANDEM BICYCLIC PEPTIDE COMPLEXES” (Bicycle Tx Limited, priority 2021, published 2024).

One series concerns HT1080-luc cells. The series can be described thus: NK cytotoxicity assay (NK:HT1080-luc co-culture, luciferase readout). Conditions: for effect on tumor cell killing by NK cells, in words: in comparison to NK:HT1080-luc co-culture without heterotandem complex (NK-TICA). It counts as cell-based, human. As for the experimental part:
(§1) Heterotandem bicyclic peptide complexes were evaluated for NK functional readouts (cytotoxicity and cytokine secretion) in NK-tumor cell line co-cultures.
(§2) NK cells were isolated using a negative isolation kit (STEMCELL™ Technologies 17955) from the total PBMC population purified from whole blood. NK cell pellet was then resuspended in DMEM medium (Corning™ 10-013-CV) with 10% heat-inactivated fetal bovine serum (FBS; Corning® 35-011-CV), 10 mM HEPES (Gibco™ 15-630-080), and 1% Penicillin Streptomycin (Corning™ 30-002-CI), and 50 IU/mL human IL-2 (Miltenyi Biotec® 130-097-748), at a concentration of 4×10^5 cells/mL. For the NK cell cytotoxicity assays, 50 μL (2×10^4) of cell suspension was plated in the 96-well plate (Grenier® Bio One™ 655090) containing 50 μl (4×10^3) HT1080-luc cells (ATCC® CCL-121-luc2) in DMEM (Gibco™ 11875-093; with L-glutamine) with 10% heat-inactivated fetal bovine serum (FBS; Corning® 35-011-CV), 10 mM HEPES (Gibco™ 15-630-080), and 1% Penicillin Streptomycin (Corning™ 30-002-CI). […] The plates were then incubated for 24 hours at 37° C., 5% CO2. Post-incubation, plates was centrifuged at 250×g for 5 minutes and 100 μl supernatant discarded. Samples were then incubated 10 minutes with 50 μl Bright-Glo™ Luciferase Assay system (Promega™ E2620). Luminescence upon excitation at 570 nm was read using a CLARIOstar® plate-reader with MARS Data Analysis Software™. Data was fit to a four-parameter non-linear regression in GraphPad Prism™ 8.0.2 to generate an EC50 value.

Assay in series [1]: as above
It counts as cell-based, human. Particulars: NK:HT1080-luc co-culture, 24 hours, read-out: EC50 NK cytotoxicity (tumor cell killing). As for the experimental part:
as §1, §2

The mark [2] stands for this setting: four-parameter logistic regression, FIGS. 2-4, 6-8, 10.

Like-named read-outs stand apart in the source and are kept apart here. Starred links: 1 amine or outer side, 2 acyl side, 3 side chain; linkers in the order of their positions; H or OH if unused. Positions of bridges follow the written chain, without caps; N, C: chain ends. Non-standard residues stand in square brackets, D forms with d. Residues, ends and D or L forms follow the SMILES beside them. Chains are numbered I, II in the order given. No end group written: not given here. *: point of attachment. X3 = O=C(CCOCCOCCOCCOCCOCCOCCOCCOCCOCCOCCOCCOCCOCCOCCOCCOCCOCCOCCOCCOCCOCCOCCOCCOCCn1cc(CCC(=O)[*:2])nn1)[*:1]; TBMT = 2,4,6-tris(bromomethyl)-s-triazine, molecular scaffold, C(c1nc(C[*:2])nc(C[*:3])n1)[*:1]; X1 = O=C(CCOCCOCCOCCN(CCOCCOCCOCCn1cc(CCC(=O)[*:2])nn1)CCOCCOCCOCCn1cc(CCC(=O)[*:3])nn1)[*:1]; TATA = O=C(CC[*:1])N1CN(C(=O)CC[*:2])CN(C(=O)CC[*:3])C1; Hyp = O=C(O)[C@@H]1C[C@@H](O)CN1; hArg = N=C(N)NCCCC[C@H](N)C(=O)O; Cba = N[C@@H](CC1CCC1)C(=O)O; Pent4ynoyl = C#CCCC(=O)*

Turning to “I: A[hArg]DC[Hyp]LVNPLCLHP[dD]W[hArg]C-NH2 / II: ACNLQAPCMQTGKVCAK-NH2 / III: ACNLQAPCMQTGKVCAK-NH2 (linker I:4-I:11-I:18, II:2-II:8-II:15, III:2-III:8-III:15 via TATA; linker I:N-II:17-III:17 via X1; C-terminus assumed) [BCY15924]”, in the series on HT1080-luc cells, the “effect on tumor cell killing by NK cells, in words” value (“effect on tumor cell killing” below) was “enhanced NK cytotoxicity”. For the same compound, in series [1] (FIG. 9), the EC50 stood at 0.5 nM.

For the compound “I: A[hArg]DC[Hyp]LVNPLCLHP[dD]W[hArg]C-NH2 / II: Ac-CY[Cba]PDYLC[dA]DEYCK-NH2 / III: Ac-CY[Cba]PDYLC[dA]DEYCK-NH2 (linker I:4-I:11-I:18, II:1-II:8-II:13, III:1-III:8-III:13 via TATA; linker I:N-II:14-III:14 via X1; C-terminus assumed) [BCY17226]”, in the series on HT1080-luc cells, the “effect on tumor cell killing” value is listed as “dose-dependent NK cell response to kill”. The EC50 in series [1] (setting [2]) is 0.0061 nM.

For the compound `CC[C@H](C)[C@@H]1NC(=O)CNC(=O)[C@H](Cc2c[nH]c3ccccc23)NC(=O)[C@H](CCC(N)=O)NC(=O)[C@@H]2CSCCC(=O)N3CN(CN(C3)C(=O)CCSC[C@@H](C(=O)N[C@@H](C)C(=O)N[C@@H](CCCCNC(=O)CCc3cn(CCOCCOCCOCCN(CCOCCOCCOCCC(=O)N[C@@H](C)C(=O)N[C@@H](CCCCNC(=N)N)C(=O)N[C@@H](CC(=O)O)C(=O)N[C@H]4CSCCC(=O)N5CN6CN(C5)C(=O)CCSC[C@H](NC(=O)[C@H](CC(C)C)NC(=O)[C@@H]5CCCN5C(=O)[C@H](CC(N)=O)NC(=O)[C@H](C(C)C)NC(=O)[C@H](CC(C)C)NC(=O)[C@@H]5C[C@@H](O)CN5C4=O)C(=O)N[C@@H](CC(C)C)C(=O)N[C@@H](Cc4c[nH]cn4)C(=O)N4CCC[C@H]4C(=O)N[C@H](CC(=O)O)C(=O)N[C@@H](Cc4c[nH]c5ccccc45)C(=O)N[C@@H](CCCCNC(=N)N)C(=O)N[C@H](C(N)=O)CSCCC6=O)CCOCCOCCOCCn4cc(CCC(=O)NCCCC[C@H](NC(=O)[C@H](C)NC(=O)[C@@H]5CSCCC(=O)N6CN7CN(C6)C(=O)CCSC[C@H](NC(=O)[C@H](CC(N)=O)NC(=O)[C@H](Cc6c[nH]cn6)NC(=O)[C@H]([C@@H](C)O)NC(=O)[C@H]([C@@H](C)O)NC(=O)[C@H](CC(C)C)NC(=O)[C@H](CC(=O)O)NC(=O)[C@@H](NC(=O)[C@H](C)N)CSCCC7=O)C(=O)N[C@@H](CCC(N)=O)C(=O)N[C@@H](Cc6c[nH]c7ccccc67)C(=O)NCC(=O)N[C@@H]([C@@H](C)CC)C(=O)N5)C(N)=O)nn4)nn3)C(N)=O)NC1=O)C(=O)CCSC[C@H](NC(=O)[C@H](C)N)C(=O)N[C@@H](CC(=O)O)C(=O)N[C@@H](CC(C)C)C(=O)N[C@@H]([C@@H](C)O)C(=O)N[C@@H]([C@@H](C)O)C(=O)N[C@@H](Cc1c[nH]cn1)C(=O)N[C@@H](CC(N)=O)C(=O)N2` [BCY15923], in the series on HT1080-luc cells, the “effect on tumor cell killing” value was “dose-dependent NK cell response to kill”. Further, the EC50 in series [1] (setting [2]) came to 0.044 nM.

For “I: Ac-D[hArg]CSAGWLTMCQKLHLCPSH-NH2 / II: Ac-CY[Cba]PDYLC[dA]DEYCK-NH2 / III: Ac-CY[Cba]PDYLC[dA]DEYCK-NH2 (linker I:3-I:11-I:17, II:1-II:8-II:13, III:1-III:8-III:13 via TATA; linker I:13-II:14-III:14 via X1; C-terminus assumed) [BCY18603]”, in the series on HT1080-luc cells, the “effect on tumor cell killing” value is listed as “enhanced NK cytotoxicity”. Besides, in series [1] (setting [2]), the EC50 is 0.003 nM.

Turning to `CC(=O)N[C@H]1CSCCC(=O)N2CN3CN(C2)C(=O)CCSC[C@H](NC(=O)[C@H](CC(C)C)NC(=O)[C@H](Cc2ccc(O)cc2)NC(=O)[C@H](CC(=O)O)NC(=O)[C@@H]2CCCN2C(=O)[C@H](CC2CCC2)NC(=O)[C@H](Cc2ccc(O)cc2)NC1=O)C(=O)N[C@H](C)C(=O)N[C@@H](CC(=O)O)C(=O)N[C@@H](CCC(=O)O)C(=O)N[C@@H](Cc1ccc(O)cc1)C(=O)N[C@H](C(=O)N[C@@H](CCCCNC(=O)CCc1cn(CCOCCOCCOCCOCCOCCOCCOCCOCCOCCOCCOCCOCCOCCOCCOCCOCCOCCOCCOCCOCCOCCOCCOCCOCCC(=O)N[C@@H](C)C(=O)N[C@@H](CCCCNC(=N)N)C(=O)N[C@@H](CC(=O)O)C(=O)N[C@H]2CSCCC(=O)N4CN5CN(C4)C(=O)CCSC[C@H](NC(=O)[C@H](CC(C)C)NC(=O)[C@@H]4CCCN4C(=O)[C@H](CC(N)=O)NC(=O)[C@H](C(C)C)NC(=O)[C@H](CC(C)C)NC(=O)[C@@H]4C[C@@H](O)CN4C2=O)C(=O)N[C@@H](CC(C)C)C(=O)N[C@@H](Cc2c[nH]cn2)C(=O)N2CCC[C@H]2C(=O)N[C@H](CC(=O)O)C(=O)N[C@@H](Cc2c[nH]c4ccccc24)C(=O)N[C@@H](CCCCNC(=N)N)C(=O)N[C@H](C(N)=O)CSCCC5=O)nn1)C(N)=O)CSCCC3=O` [BCY18731] (I: A[hArg]DC[Hyp]LVNPLCLHP[dD]W[hArg]C-NH2 / II: Ac-CY[Cba]PDYLC[dA]DEYCK-NH2; linker I:4-I:11-I:18, II:1-II:8-II:13 via TATA; linker I:N-II:14 via X3; C-terminus assumed), the EC50 in series [1] (setting [2]) was found to be 0.018 nM.

Consider `CC(=O)N[C@H]1CSCCC(=O)N2CN3CN(C2)C(=O)CCSC[C@H](NC(=O)[C@H](CC(C)C)NC(=O)[C@H](Cc2ccc(O)cc2)NC(=O)[C@H](CC(=O)O)NC(=O)[C@@H]2CCCN2C(=O)[C@H](CC2CCC2)NC(=O)[C@H](Cc2ccc(O)cc2)NC1=O)C(=O)N[C@H](C)C(=O)N[C@@H](CC(=O)O)C(=O)N[C@@H](CCC(=O)O)C(=O)N[C@@H](Cc1ccc(O)cc1)C(=O)N[C@H](C(=O)N[C@@H](CCCCNC(=O)CCc1cn(CCOCCOCCOCCN(CCOCCOCCOCCC(=O)N[C@@H](CC(C)C)C(=O)N2CCC[C@H]2C(=O)N2CCC[C@H]2C(=O)N[C@H]2CSCCC(=O)N4CN5CN(C4)C(=O)CCSC[C@H](NC(=O)[C@H](CCC(=O)O)NC(=O)[C@H](CCCCNC(=N)N)NC(=O)[C@H](C(C)C)NC2=O)C(=O)N[C@@H](C)C(=O)N[C@@H](CC(C)(C)C)C(=O)N[C@@H](CC(C)C)C(=O)N[C@@H](Cc2ccccc2)C(=O)N2CCC[C@H]2C(=O)N[C@@H](CCCCNC(=N)N)C(=O)N[C@@H]([C@@H](C)O)C(=O)N[C@H](C(N)=O)CSCCC5=O)CCOCCOCCOCCn2cc(CCC(=O)NCCCC[C@H](NC(=O)[C@@H]4CSCCC(=O)N5CN6CN(C5)C(=O)CCSC[C@H](NC(=O)[C@H](CC(C)C)NC(=O)[C@H](Cc5ccc(O)cc5)NC(=O)[C@H](CC(=O)O)NC(=O)[C@@H]5CCCN5C(=O)[C@H](CC5CCC5)NC(=O)[C@H](Cc5ccc(O)cc5)NC(=O)[C@@H](NC(C)=O)CSCCC6=O)C(=O)N[C@H](C)C(=O)N[C@@H](CC(=O)O)C(=O)N[C@@H](CCC(=O)O)C(=O)N[C@@H](Cc5ccc(O)cc5)C(=O)N4)C(N)=O)nn2)nn1)C(N)=O)CSCCC3=O` [BCY18604], for which the “effect on tumor cell killing” value with HT1080-luc cells is reported as “enhanced NK cytotoxicity”. Moreover, the EC50 in series [1] (setting [2]) was determined as 0.0079 nM.

As to “BCY17235: EphA2 peptide BCY9594 linked to NKp46 peptide (BCY17224) and CD16a peptide (BCY13883) via a TCA-[Peg23]3 linker (peptide 1 A[hArg]DC[Hyp]LVNPLCLHP[dD]W[hArg]C; peptide 2 Ac-CY[Cba]PDYLC[dA]DEYCK(Pent4ynoyl); peptide 3 ACRWSVEDPCGAWCAK(Pent4ynoyl); linker I:4-I:11-I:18, II:1-II:8-II:13 via TATA; linker III:2-III:10-III:14 via TBMT; also: chain 1 N-terminus and the K(PYA) of chains 2 and 3 joined through TCA-[Peg23]3 linker)”, the EC50 in the series on HT1080-luc cells (NK:HT1080-luc co-culture, 24 hours, four-parameter logistic regression, FIGS. 2-4, 6-8, 10, read-out: EC50 NK cytotoxicity (tumor cell killing)) came out at 0.014 nM. The “effect on tumor cell killing” value with HT1080-luc cells was “enhanced, dose-dependent effect on tumor cell killing”.
